Results reported in patent US7595401B2, “Therapeutic compounds and their use in cancer” (Myriad Pharmaceuticals, Inc., priority 2006, dated 2009).

These compounds were tested on purified human Hsp90 (assay: Binding Assay: fluorescence polarization with BODIPY-labeled geldanamycin). Conditions: 5 μM compound, BODIPY-GM 10 nM, Hsp90 30 nM.
Outline: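 Fluorescence polarization competition with BODIPY-geldanamycin (10 nM final) and human Hsp90 (30 nM final) in HEPES-KOH pH 7.3 buffer with molybdate, NP-40, DTT; 2% DMSO, overnight at room temperature. Read 485/530 nm; percent inhibition from mP normalized to DMSO controls, fluorescent-compound points excluded.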

Point of comparison: CCn1nnnc1N1CCC(CCn2cnc(N)c3nc(Sc4cc5c(cc4Br)OCO5)nc2-3)CC1 [Example 611, 8-[(6-Bromo-1,3-benzodioxol-5-yl)thio]-3-{2-[1-(1-ethyl-1 H-tetrazol-5-yl)piperidin-4-yl]ethyl}-3 H-purin-6-amine], “% Inhibition at 5 μM Compound Concentration” value 22.00%. Against it:
- Nc1ncn(CCc2ccccc2Cl)c2nc(Sc3cc4c(cc3Br)OCO4)nc1-2 [Example 54, 8-(6-bromo-benzo[1,3]dioxol-5-ylsulfanyl)-3-[2-(2-chloro-phenyl)-ethyl]-3H-purin-6-ylamine] — lower, 13%
- COc1ccc(OC)c(Sc2nc3c(N)ncn(CCC4CC(C)(C)NC(C)(C)C4)c-3n2)c1 [Example 360, 8-[(2,5-Dimethoxyphenyl)thio]-3-[2-(2,2,6,6-tetramethylpiperidin-4-yl)ethyl]-3H-purin-6-amine] — lower, 5%
- CC(C)(C)OC(=O)N1CC(CCn2cnc(N)c3nc(Sc4cc5c(cc4Br)OCO5)nc2-3)C1 [Example 459, tert-Butyl 3-(2-{6-amino-8-[(6-bromo-1,3-benzodioxol-5-yl)thio]-3H-purin-3-yl}ethyl)azetidine-1-carboxylate] — lower, 18%
- CC(=O)c1ccc(CCn2c(Sc3cc4c(cc3Br)OCO4)nc3c(N)ncnc32)cc1 [Example 159, 1-(4-{2-[6-Amino-8-(6-bromo-benzo[1,3]dioxol-5-ylsulfanyl)-purin-9-yl]-ethyl}-phenyl)-ethanone] — higher, 63%
- Nc1ncn(CC2(c3ccc(Cl)cc3)CCC2)c2nc(Sc3cc4c(cc3Br)OCO4)nc1-2 [Example 96, 8-(6-bromo-benzo[1,3]dioxol-5-ylsulfanyl)-3-[1-(4-chloro-phenyl)-cyclobutylmethyl]-3H-purin-6-ylamine] — lower, 2%
- CC(=O)Nc1ccc(Sc2nc3c(N)ncn(CCC4CCN(C=O)CC4)c-3n2)c(Cl)c1 [Example 549, N-[4-({6-Amino-3-[2-(1-formylpiperidin-4-yl)ethyl]-3 H-purin-8-yl}thio)-3-chlorophenyl]acetamide] — lower, 11.00%
- CN1CCCC1CCn1cnc(N)c2nc(Sc3cc4c(cc3Br)OCO4)nc1-2 (stereo not shown) [Example 352, 8-[(6-Bromo-1,3-benzodioxol-5-yl)thio]-3-[2-(1-methylpyrrolidin-2-yl)ethyl]-3H-purin-6-amine] — higher, 35%
- COc1ccc(OC)c(Sc2nc3c(N)ncnc3n2CC(c2ccc(Cl)cc2)C(C)C)c1 (stereo not shown) [Example 119, 9-[2-(4-Chloro-phenyl)-3-methyl-butyl]-8-(2,5-dimethoxy-phenylsulfanyl)-9H-purine-6-ylamine] — lower, 15%
- Nc1ncn(CCn2cccc2)c2nc(Sc3ccc4c(c3)OCO4)nc1-2 [Example 50, 8-(benzo[1,3]dioxol-5-ylsulfanyl)-3-(2-pyrrol-1-yl-ethyl)-3H-purin-6-ylamine] — lower, 3%

Same assay, conditions: BODIPY-GM 10 nM, Hsp90 30 nM

Point of comparison: C[C@@H](N)C(=O)N1CCC[C@@H](CCn2c(Sc3cc4c(cc3Br)OCO4)nc3c(N)ncnc32)C1 [Example 755, 9-(2-{(3S)-1-[(2R)-2-Aminopropanoyl]piperidin-3-yl}ethyl)-8-[(6-bromo-1,3-benzodioxol-5-yl)thio]-9H-purin-6-amine], IC50 140 nM. Against it:
- COc1c(Sc2nc3c(N)ncnc3n2CCC2CCN(C=O)CC2)cc(C)c2c1CCC2 [Example 556, 4-(2-{6-Amino-8-[(4-methoxy-7-methyl-2,3-dihydro-1 H-inden-5-yl)thio]-9 H-purin-9-yl}ethyl)piperidine-1-carbaldehyde] — 14-fold higher, 2000 nM
- CC(C)(C)OC(=O)N1CCCC(Cn2c(Sc3cc4c(cc3Br)OCO4)nc3c(N)ncnc32)C1 (stereo not shown) [Example 641, tert-Butyl 3-({6-amino-8-[(6-bromo-1,3-benzodioxol-5-yl)thio]-9 H-purin-9-yl}methyl)piperidine-1-carboxylate] — 7.9-fold higher, 1100 nM
- C[C@H](N)C(=O)N1CCCC(CCn2c(Sc3cc4c(cc3Br)OCO4)nc3c(N)ncnc32)C1 (stereo partly drawn) [Example 747, 9-(2-{1-[(2S)-2-Aminopropanoyl]piperidin-3-yl}ethyl)-8-[(6-bromo-1,3-benzodioxol-5-yl)thio]-9H-purin-6-amine] — within 1.5-fold, 110 nM
- CC(=O)N1CCC(CCn2c(Sc3ccc4c(c3)CCO4)nc3c(N)ncnc32)CC1 [Example 528, 9-[2-(1-Acetylpiperidin-4-yl)ethyl]-8-(2,3-dihydro-1-benzofuran-5-ylthio)-9 H-purin-6-amine] — higher, > 5000 nM
- Nc1ncnc2c1nc(Sc1cc3c(cc1Br)OCO3)n2CCNc1cccc2cccnc12 [Example 574, N-(2-{6-Amino-8-[(6-bromo-1,3-benzodioxol-5-yl)thio]-9 H-purin-9-yl}ethyl)quinolin-8-amine] — 13-fold higher, 1800 nM
- Nc1ncnc2c1nc(Sc1cc3c(cc1Br)OCO3)n2CCC1CCN(C(=O)[C@@H]2CCCCN2)CC1 [Example 754, 8-[(6-Bromo-1,3-benzodioxol-5-yl)thio]-9-(2-{1-[(2S)-piperidin-2-ylcarbonyl]piperidin-4-yl}ethyl)-9H-purin-6-amine] — 2.8-fold lower, 50 nM
- CC(=O)c1ccc(CCn2c(Sc3cc4c(cc3Br)OCO4)nc3c(N)ncnc32)cc1 [Example 159, 1-(4-{2-[6-Amino-8-(6-bromo-benzo[1,3]dioxol-5-ylsulfanyl)-purin-9-yl]-ethyl}-phenyl)-ethanone] — 5.7-fold higher, 800 nM
- CC(C)[C@@H]1C[C@H](CCn2c(Sc3cc4c(cc3Br)OCO4)nc3c(N)ncnc32)CCN1 (relative stereo) [Example 480, 8-[(6-bromo-1,3-benzodioxol-5-yl)thio]-9-{2-[cis-2-isopropylpiperidin-4-yl]ethyl}-9 H-purin-6-amine] — within 1.5-fold, 160 nM
- CC(C)(C)OC(=O)N1CCC(CCn2c(Sc3cc4c(cc3Br)OCO4)nc3c(N)ncnc32)C(C)(C)C1 (stereo not shown) [Example 464, tert-Butyl 4-(2-{6-amino-8-[(6-bromo-1,3-benzodioxol-5-yl)thio]-9H-purin-9-yl}ethyl)-3,3-dimethylpiperidine-1-carboxylate] — 2.9-fold higher, 400 nM
- Nc1ncnc2c1nc(Sc1cc3c(cc1Br)OCO3)n2CC[C@@H]1CCCCN1 [Example 477, 8-[(6-Bromo-1,3-benzodioxol-5-yl)thio]-9-{2-[(2S)-piperidin-2-yl]ethyl}-9 H-purin-6-amine] — 3.3-fold higher, 467 nM
- CC(=O)N1CCC(CCn2c(Sc3nc4cccc(Cl)c4s3)nc3c(N)ncnc32)CC1 [Example 657, 9-[2-(1-Acetylpiperidin-4-yl)ethyl]-8-[(7-chloro-1,3-benzothiazol-2-yl)thio]-9H-purin-6-amine] — within 1.5-fold, 190 nM
- COc1cc(F)c(Sc2nc3c(N)ncnc3n2CCC2CCN(C(C)=O)CC2)cc1F [Example 559, 9-[2-(1-Acetylpiperidin-4-yl)ethyl]-8-[(2,5-difluoro-4-methoxyphenyl)thio]-9 H-purin-6-amine] — higher, > 5000 nM
- COc1cc(CCn2c(Sc3cc4c(cc3Br)OCO4)nc3c(N)ncnc32)cc(OC)c1OC [Example 91, 8-(6-Bromo-benzo[1,3]dioxol-5-ylsulfanyl)-9-[2-(3,4,5-trimethoxy-phenyl)-ethyl]-9H-purin-6-ylamine] — within 1.5-fold, 200 nM
- Nc1ncnc2c1nc(Sc1cc3c(cc1Br)OCO3)n2CCc1c(F)c(F)c(F)c(F)c1F [Example 41, 8-(6-Bromo-benzo[1,3]dioxol-5-ylsulfanyl)-9-(2-pentafluorophenyl-ethyl)-9H-purin-6-ylamine] — 3.6-fold higher, 500 nM
- CC(C)C[C@H](NC(=O)OC(C)(C)C)C(=O)N1CCCC(CCn2c(Sc3cc4c(cc3Br)OCO4)nc3c(N)ncnc32)C1 (stereo partly drawn) [Example 719, tert-Butyl((1S)-1-{[3-(2-{6-amino-8-[(6-bromo-1,3-benzodioxol-5-yl)thio]-9H-purin-9-yl}ethyl)piperidin-1-yl]carbonyl}-3-methylbutyl)carbamate] — 5.7-fold higher, 800 nM
- CCOC(=O)[C@@H]1C[C@H](CCn2c(Sc3cc4c(cc3Br)OCO4)nc3c(N)ncnc32)CCN1C(=O)OC(C)(C)C (relative stereo) [Example 422, 1-tert-Butyl 2-ethyl cis-4-(2-{6-amino-8-[(6-bromo-1,3-benzodioxol-5-yl)thio]-9H-purin-9-yl}ethyl)piperidine-1,2-dicarboxylate] — higher, > 3000 nM
- COc1ccc(C)cc1Sc1nc2c(N)ncnc2n1CCc1ccccc1 [Example 314, 8-[(2-Methoxy-5-methylphenyl)thio]-9-(2-phenylethyl)-9H-purin-6-amine] — 49-fold higher, 6800 nM
- CC(=O)N1CCC(CCn2c(Sc3cc4c(cc3C#N)OCO4)nc3c(N)ncnc32)CC1 [Example 620, 6-({9-[2-(1-Acetylpiperidin-4-yl)ethyl]-6-amino-9 H-purin-8-yl}thio)-1,3-benzodioxole-5-carbonitrile] — within 1.5-fold, 170 nM
- CC(C)C[C@H](N)C(=O)N1CCCC(CCn2c(Sc3cc4c(cc3Br)OCO4)nc3c(N)ncnc32)C1 (stereo partly drawn) [Example 748, 9-(2-{1-[(2S)-2-Amino-4-methylpentanoyl]piperidin-3-yl}ethyl)-8-[(6-bromo-1,3-benzodioxol-5-yl)thio]-9H-purin-6-amine] — 1.5-fold higher, 210 nM
- C[C@H](NC(=O)OC(C)(C)C)C(=O)N1CCCC(CCn2c(Sc3cc4c(cc3Br)OCO4)nc3c(N)ncnc32)C1 (stereo partly drawn) [Example 703, tert-Butyl{(1S)-2-[3-(2-{6-amino-8-[(6-bromo-1,3-benzodioxol-5-yl)thio]-9H-purin-9-yl}ethyl)piperidin-1-yl]-1-methyl-2-oxoethyl}carbamate] — within 1.5-fold, 190 nM
- Nc1ncnc2c1nc(Sc1cc3c(cc1Br)OCO3)n2CCc1cccc(F)c1 [Example 109, 8-(6-Bromo-benzo[1,3]dioxol-5-ylsulfanyl)-9-[2-(3-fluoro-phenyl)-ethyl]-9H-purin-6-ylamine] — 2.1-fold higher, 300 nM
- CC(C)(C)OC(=O)N1CCCC[C@H]1C(=O)N1CCC(CCn2c(Sc3cc4c(cc3Br)OCO4)nc3c(N)ncnc32)CC1 [Example 732, tert-Butyl(2S)-2-{[4-(2-{6-amino-8-[(6-bromo-1,3-benzodioxol-5-yl)thio]-9H-purin-9-yl}ethyl)piperidin-1-yl]carbonyl}piperidine-1-carboxylate] — higher, > 5000 nM
- COc1ccc(OC)c(Sc2nc3c(N)ncnc3n2CCc2ccc(Cl)cc2Cl)c1 [Example 27, 9-[2-(2,4-Dichloro-phenyl)-ethyl]-8-(2,5-dimethoxy-phenylsulfanyl)-9H-purin-6-ylamine] — higher, > 10000 nM
